1 compound from publication PMC10058894, “Bioactive C21 Steroidal Glycosides from Euphorbia kansui Promoted HepG2 Cell Apoptosis via the Degradation of ATP1A1 and Inhibited Macrophage Polarization under Co-Cultivation” (Molecules, 2023) can be followed below.

One experiment has as its system Huh-7 cells. The experiment is described as follows: Apoptosis of Huh-7 cells by flow cytometry (Annexin V/PI). The format is cell-based. From the text: 2. The anti-proliferation of compound 5 on Huh-7 cells
We tested another hepatoma cell line (Huh-7) to validate effect of compound 5. L02 (normal hepatocytes), HepG2 and Hub-7 cells were used to discuss the effect of 5. […]
of 5 on Huh-7 cell was (24.49±[…]) μM (Table S1). The morphology and apoptosis of the cells by reversed microscope and flow cytometry, respectively.
Second, the expression and phosphorylation of ATP1A1 were detected by Western blot analysis in L02, HepG2 and Huh-7 cells. Compared with L02 group, the expression of ATP1A1 was higher in HepG2 and Huh-7 cells, but there was no significant difference in the phosphorylation of ATP1A1 (Figure […]
At last, the effect of 5 on the expression and the phosphorylation of ATP1A1 in Huh-7 cells was […]
the phosphorylation of ATP1A1. The result was consistent with that observed in HepG2 cells (Figure […]
Table S1 Cell viability of Huh-7 cell treated by compound 5
Figure S2 Compound 5 inhibited the proliferation and the level of ATP1A1 protein in Huh-7 cells L5, low concentration of 5 (12.5 μmol-1 ); H5, high concentration of 5 (25 μmol-1). […] (B) Image of cell apoptosis in Huh-7 cells was detected by flow cytometry. The cells were double stained with Annexin V and PI. […] Data are expressed as the mean ± standard deviation (n=3). *p<0.05, **p<0.01, ***p<0.001 vs. the control group. […]

For experiment [1], the system named is HepG2 cells. Nature of the experiment: Scratch test and colony formation assay. It counts as cell-based. Particulars: scratch 36 h, colony 7 days, 12.5 and 25 μmol. On the procedure:
HepG2 cells (8 × 10^4 cells/well) were incubated in 24-well plates for 24 h. Cells were treated with a compound for 36 h after making a uniform straight from scratch with a 200 μL pipette tip. Cell motility was detected by measuring the wound closure distance after 36 h. Images were recorded using an inverted microscope (Olympus CK40, Shinjuku, Japan). HepG2 cells (600 cells/well) were incubated in 6-well plates and treated with the compound. One week later, visible colonies had formed. Then, the colonies were fixed with 4% polymethanol paraformaldehyde and stained with crystal violet (0.005%). The number of colonies was calculated by using a microscope.

A further experiment has as its target ATP1A1 (Homo sapiens, UniProt P05023). The experiment is described as follows: CETSA binding assay. Details: we focused on the regulatory effect of 5 on ATP1A1 in HepG2 cells; endogenous in cells; host or cells: HepG2. Particulars: 50 μmoL−1, western blot. On the procedure: Figure 4 Compound 5 promoted the endocytosis and degradation of ATP1A1. (A) HepG2 cells were treated with 12.5 μmol∙L^−1 or 25 μmol∙L^−1 5 for 48 h, and the lysosomal co-localization assay was performed with a confocal laser. (B) Cells exposed to 25 μmol∙L^−1 5 for 12 h or 24 h were detected by fluorescence staining. (C) 5 is depicted in red, and the chains of Na^+, K^+-ATPase α/β/γ are represented by light blue, cyan-blue, and magenta, respectively. The crystallography, atomic coordinates, and structure factors have been deposited in the Protein Data Bank, www.pdb.org (accessed on 1 February 2023) (PDB ID code 3KDP). (D) The CETSA binding assay of ATP1A1 and β-actin in the presence or absence of 5 (50 μmoL^−1) at different temperatures was detected by western blot. The temperature-dependent melting curves and the apparent aggregation temperature were calculated by nonlinear regression. Values represent the mean ± SEM (N = 3 replicates).
(Immunoblotting shows a protein as a band on a membrane.)

The subject of experiment [2] is NO production of LPS-stimulated RAW264.7 cells. Nature of the experiment: Nitric oxide production in LPS-stimulated RAW264.7 cells (Griess). It counts as cell-based. On the procedure: RAW264.7 cells (8 × 10^4 cells/well) were incubated in 96T wells with DMEM for 24 h and then treated with compounds and LPS (1 μg/mL) for 24 h; this included the control group and LPS group. Then, the cell supernatant was collected for nitric oxide production assay. Next, 100 uL/well PBS was added to 96T wells, then 0.5% MTT (Sigma, Saint Louis, MO, USA) was added to 20 μL/well for 3.5 h. DMSO (150 μL/well) was added to dissolve the purple formazan. Cells were agitated for 15 min at room temperature, and the absorbance at 490 nm was recorded by SpetraMax M2 (Molecular Devices, San Jose, CA, USA). The NO inhibition rate (%) = (ODLPS group − ODcompound group)/(ODLPS group-ODcontrol group) × 100%. The IC50 value refers to the inhibitory of nitric oxide production of LPS-stimulated RAW264.7 cells. Then, 70 uL of each cell supernatant sample was added into a new 96T plate, and Griess A and Griess B were added separately. Then, the absorbance value at 540 nm was detected and then brought into the standard curve to assay the concentration of NO. The cell survival rate (%) = (ODcompound group − ODblank group)/(ODcontrol group − ODblank group) × 100%. The half concentration of the cell death (CC50) value refers to the concentration of compound 5 when 50% of RAW264.7 cells die. The iNOS inhibitor ([…], L-NMMA) was selected as the positive control. The levels of cytokines (IL-1β, IFN-γ, IL-10, TNF-α, and IL-6) in the cell supernatant were determined using an ELISA kit (Novus Biologicals, Shanghai, China, Lot: 834472, 770118, 772051, 486956, 602865). When the process was conducted according to the manufacturer’s instructions, the absorbance was read at 450 nm/570 nm in a SpectraMax 340PC microplate spectrophotometer (Molecular Devices, San Jose, CA, USA).
Background: Griess reagent forms a coloured azo dye with nitrite.

The test system of experiment [3] is HepG2 cells. Nature of the experiment: Fluorescence staining for apoptosis (Hoechst 33342, Annexin V/PI). It counts as cell-based. On the procedure:
HepG2 cells (4 × 10^5 cells/well) were incubated in confocal dishes with DMEM for 24 h and then treated with compounds for 48 h. Then, the cells were treated with 0.1% Triton X-100 for 10 min and washed with PBS five times. Finally, the cells were dyed with anti-ATP1A1 at 4 °C overnight. Nuclear staining with DAPI (1 μg∙mL^−1) was added for 7 min in the dark, and the cells were washed. The stained images were captured under a laser scanning confocal microscope (Nikon A1 AIR MP+, Tokyo, Japan). HepG2 cells (5 × 10^5 cells/well) were incubated in 6-well plates in complete DMEM. Cells were treated with compounds for 24 h. Then, the cells were stained with Annexin V/PI for 30 min at 4 °C in the dark, and apoptosis analysis was carried out by laser scanning confocal microscopy.

Regarding `C[C@H](O)[C@]1(O)CC[C@@]2(O)[C@]1(C)[C@H](OC(=O)/C=C/c1ccccc1)C[C@@H]1[C@@]3(C)CC[C@H](O[C@H]4C[C@H](O)[C@H](O)[C@@H](C)O4)CC3=CC[C@]12O` [Compound 5, Cynsaccatol L], in the experiment with Huh-7 cells, the “apoptosis of Huh-7 cells” value is “induce apoptosis of Huh-7 cells”. Besides, in the experiment on HepG2 cells [1], the “cell migration and proliferation (scratch and colony formation)” value is given as “greatly inhibited”. At ATP1A1, the “denaturation temperature of ATP1A1 (CETSA)” value is given as “higher than that of the control group”. Besides, in experiment [2] (LPS-stimulated RAW264.7 cells), the “inhibitory activity on NO production relative to the positive control drug (L-NMMA)” value was 1000 times. For the same compound, the IC50 in experiment [2] (Mus musculus, LPS (1 μg/mL)-stimulated RAW264.7 cells, 24 h, read-out: RAW264.7 IC50 (inhibition of nitric oxide production)) stood at 20 ± 20 nM. Besides, in the experiment with HepG2 cells [3], the “nuclear changes (Hoechst 33342 staining)” value is “significantly induce nuclear changes”. For the same compound, the “nuclear and cell membrane morphological changes (Annexin V/PI staining)” value in the experiment with HepG2 cells [3] (as low as 12.5 μmol∙L−1) was “significantly induce nuclear and cell membrane morphological changes”.

A word on the IC50: it is the point on the concentration scale where inhibition reaches its midpoint.
